{
  "source": "patent US20240122829A1",
  "about": "“HAIR COMPOSITIONS, HAIR FORMULATIONS, PROCESSES OF PRODUCTION THEREOF, USES AND METHODS OF HAIR TREATMENT” (CHEMYUNION LTDA., priority 2021, published 2024)",
  "experiment": "Repairing effect: maximum tension of hair fibers after 3 discoloration processes, composition applied in a leave-in base",
  "conditions": "synergy test, after 3 discolorations; compositions at 5% in leave-in base; FIG. 11",
  "description": "To evaluate the effectiveness of the repairing effect, tests of maximum tension were performed after 2 or 3 discoloration processes in hair samples, composed by a naïve control group (without discoloration process), a discolored control group, a group discolored with application of the Benchmark 1 composition and a group containing the compositions of the present patent application after two or three discoloration processes, the composition being applied in a leave-in base containing 1% or 5% of the composition, this composition being the Base A or Base B, while Benchmark consisted of a ready-to-use cosmetic base (Benchmark 2 or Benchmark 3).\nThe leave-in base comprises: 3%-5% cetostearyl alcohol 30/70; 0.8-2.5% cetyl alcohol 0.8-2.5%; 0.05%-0.1% disodium EDTA; 0.8%-2.5% CCTA cetyl trimethyl ammonium chloride; 0.25%-1% preservatives and anti-microbial agents and water q.s. […]\nAfter the discoloration process, a standardized amount of Leave-in was applied to the strands with or without (control) 1% or 5% of the hair composition of the present patent application on damp hair, and this composition may be the Base A or Base B or the actives making up Base B, while the benchmark consisted of a ready-to-use cosmetic base (Benchmark 2 or Benchmark 3). […]",
  "data": [
    {"smiles": "N=C(N)NCCC[C@H](N)C(=O)O", "note": "[arginine]", "values": [
      {"measurement": "increase in resistance in relation to the discolored strand", "result": 3.9, "unit": "%"}
    ]}
  ]
}
